Measurements: patent US20100074846A1, “Campylobacter Vaccines and Methods of use” (priority 2006, published 2010)

Test system: Campylobacter species pig isolates
Assay: nalidixic acid and cephalothin antibiotic sensitivity and resistance testing of pig isolates
Type: cell-based, Campylobacter coli

Row | Compound | antibiotic sensitivity/resistance (pig isolate 1-Group B) | antibiotic sensitivity/resistance (pig isolate 2-Group B) | antibiotic sensitivity/resistance (pig isolate 3-Group A) | antibiotic sensitivity/resistance (pig isolate 3-Group B) | antibiotic sensitivity/resistance (pig isolate 4-Group A) | antibiotic sensitivity/resistance (pig isolate 6-Group A) | antibiotic sensitivity/resistance (pig isolate 7-Group A)
1 | CCn1cc(C(=O)O)c(=O)c2ccc(C)nc21 [NA, nalidixic acid] | S | S | R | S | S | S | S
2 | CC(=O)OCC1=C(C(=O)O)N2C(=O)[C@@H](NC(=O)Cc3cccs3)[C@H]2SC1 [Cph, cephalothin] | S | R | R | R | S | R | R
